Test results as given in patent US20040259851A1, “Methods of administering estrogens and progestins” (priority 2003, published 2004).
Where two headings read alike, the source gives them in different places.

How the values were obtained:
[1] = Megestrol Acetate in plasma samples by GC/MS; assay type: in vivo; conditions: human; for concentration at 1 h: 1 h post dosing; for concentration at 2 h: 2 h post dosing; for concentration at 4 h: 4 h post dosing; for concentration at 8 h: 8 h post dosing; for concentration at 12 h: 12 h post dosing; for concentration at 24 h: 24 h post dosing; for concentration at 36 h: 36 h post dosing; for concentration at 48 h: 48 h post dosing; for concentration at 0 h: time 0 h (predose)
Procedure: A total of 90 plasma samples were analyzed for their content of Megestrol Acetate by GC/MS.
In this study megestrol acetate was utilized and medroxyprogesterone acetate was utilized as an internal standard.
For each sample, 1 mL of human plasma was aliquoted and spiked with 25 μL of the internal standard working solution. In the following, the samples were alkalized and extracted with a toluene/diisopropylether mixture. The resulting extracts were stored in a refrigerator until measurement. Just prior to measurement, the sample extracts were evaporated to dryness and reconstituted in toluene. 2 μL of the resulting solution were injected into the GC/MS system. The gas chromatograph was run in the temperature-programmed mode to achieve improved separation. Positive ions chemical ionization (PICI) was used for mass selective detection. Selected mass/charge ratios were m/z 385.2 for megestrol acetate and m/z 387.2 for the internal standard.
The time measured represents the number of hours passed post dosing. Subjects 2, 4, 6, 8 and 10 all received a 6 mg dose of megestrol acetate. Subjects 1, 3, 5, 7 and 9 all received a 1.5 mg dose of megestrol acetate. […] A third measurement was not possible due to insufficient sample. During the study, 3 series of plasma calibration curves were measured (prevalidation run not considered).

menopausal hot flashes = conditions: cited from earlier work

## CC(=O)O[C@]1(C(C)=O)CC[C@H]2[C@@H]3C=C(C)C4=CC(=O)CC[C@]4(C)[C@H]3CC[C@@]21C [megestrol acetate, Pregna-4,6-diene-3,20-dione, 17-(acetyloxy)-6-methyl-]
[1]; 1.5 mg, Sub 1, 1.5 mg dose
  concentration at 1 h: 7.82 ng/mL
  concentration at 2 h: 2.74 ng/mL
  concentration at 4 h: 1.01 ng/mL
  concentration at 8 h: 0.607 ng/mL
  concentration at 12 h: 0.413 ng/mL
  concentration at 24 h: 0.399 ng/mL
  concentration at 36 h: 0.504 ng/mL
  concentration at 48 h: 0.463 ng/mL
  concentration at 0 h: 0.492 ng/mL
[1]; 1.5 mg, Sub 3, 1.5 mg dose
  concentration at 1 h: 9.32 ng/mL
  concentration at 2 h: 5.24 ng/mL
  concentration at 4 h: 3.04 ng/mL
  concentration at 8 h: 2.66 ng/mL
  concentration at 12 h: 1.98 ng/mL
  concentration at 24 h: 1.8 ng/mL
  concentration at 36 h: 1.99 ng/mL
  concentration at 48 h: 1.48 ng/mL
  concentration at 0 h: 1.98 ng/mL
[1]; 1.5 mg, Sub 5, 1.5 mg dose
  concentration at 1 h: 4.98 ng/mL
  concentration at 2 h: 2.75 ng/mL
  concentration at 4 h: 0.959 ng/mL
  concentration at 8 h: 0.521 ng/mL
  concentration at 12 h: 0.353 ng/mL
  concentration at 24 h: 0.344 ng/mL
  concentration at 36 h: 0.409 ng/mL
  concentration at 48 h: 0.267 ng/mL
  concentration at 0 h: 0.426 ng/mL
[1]; 1.5 mg, Sub 7, 1.5 mg dose
  concentration at 1 h: 7.82 ng/mL
  concentration at 2 h: 4.83 ng/mL
  concentration at 4 h: 1.99 ng/mL
  concentration at 8 h: 1.47 ng/mL
  concentration at 12 h: 1.59 ng/mL
  concentration at 24 h: 0.771 ng/mL
  concentration at 36 h: 0.592 ng/mL
  concentration at 48 h: 0.564 ng/mL
  concentration at 0 h: 0.851 ng/mL
[1]; 1.5 mg, Sub 9, 1.5 mg dose
  concentration at 1 h: 14.4 ng/mL
  concentration at 2 h: 9.21 ng/mL
  concentration at 4 h: 4.02 ng/mL
  concentration at 8 h: 1.64 ng/mL
  concentration at 12 h: 1.59 ng/mL
  concentration at 24 h: 1.09 ng/mL
  concentration at 36 h: 1.3 ng/mL
  concentration at 48 h: 1.31 ng/mL
  concentration at 0 h: 1.4 ng/mL
[1]; 6 mg, Sub 2, 6 mg dose
  concentration at 1 h: 32.9 ng/mL
  concentration at 2 h: 28.1 ng/mL
  concentration at 4 h: 9.89 ng/mL
  concentration at 8 h: 6.98 ng/mL
  concentration at 12 h: 5.84 ng/mL
  concentration at 24 h: 4.4 ng/mL
  concentration at 36 h: 5.04 ng/mL
  concentration at 48 h: 3.58 ng/mL
  concentration at 0 h: 6.48 ng/mL
[1]; 6 mg, Sub 4, 6 mg dose
  concentration at 1 h: 37.4 ng/mL
  concentration at 2 h: 18.7 ng/mL
  concentration at 4 h: 7.22 ng/mL
  concentration at 8 h: 4.7 ng/mL
  concentration at 12 h: 3.05 ng/mL
  concentration at 24 h: 2.17 ng/mL
  concentration at 36 h: 3.58 ng/mL
  concentration at 48 h: 2.9 ng/mL
  concentration at 0 h: 4.44 ng/mL
[1]; 6 mg, Sub 6, 6 mg dose
  concentration at 1 h: 44 ng/mL
  concentration at 2 h: 32.1 ng/mL
  concentration at 4 h: 12.6 ng/mL
  concentration at 8 h: 7.61 ng/mL
  concentration at 12 h: 5.8 ng/mL
  concentration at 24 h: 4.04 ng/mL
  concentration at 36 h: 6.58 ng/mL
  concentration at 48 h: 5.65 ng/mL
  concentration at 0 h: 8.58 ng/mL
[1]; 6 mg, Sub 8, 6 mg dose
  concentration at 1 h: 19.5 ng/mL
  concentration at 2 h: 10.6 ng/mL
  concentration at 4 h: 3.68 ng/mL
  concentration at 8 h: 1.41 ng/mL
  concentration at 12 h: 0.908 ng/mL
  concentration at 24 h: 0.459 ng/mL
  concentration at 36 h: 1.34 ng/mL
  concentration at 48 h: 0.796 ng/mL
  concentration at 0 h: < 0.1 ng/mL
[1]; 6 mg, Sub 10, 6 mg dose
  concentration at 1 h: 23.5 ng/mL
  concentration at 2 h: 17.2 ng/mL
  concentration at 4 h: 6.93 ng/mL
  concentration at 8 h: 4.95 ng/mL
  concentration at 12 h: 2.85 ng/mL
  concentration at 24 h: 1.77 ng/mL
  concentration at 36 h: 2.6 ng/mL
  concentration at 48 h: 1.63 ng/mL
Menopausal hot flashes; daily dose 20 mg
  decrease of menopausal hot flashes: 80%
Menopausal hot flashes; daily dose 40 mg
  decrease of menopausal hot flashes: 89%
Menopausal hot flashes; daily dose 80 mg
  decrease of menopausal hot flashes: 98%
